Reference: ChEMBL document CHEMBL1201862, “PubChem BioAssay data set” (2004)
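Results reflect a 48-hour exposure of cells in 96-well plates to compound at five concentrations. The concentration for 50% growth inhibition is given as GI50.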 Active and inactive are the calls of the source. Rule as the data show it: active = GI50 up to about 1.1 µM and inactive = higher.

Key:
Test in all cases: NCI anticancer screen, dose series, 48 h
[1] = tested on: A498
[2] = tested on: PC-3
[3] = tested on: HOP-92
[4] = tested on: SK-OV-3
[5] = tested on: ACHN
[6] = tested on: NCI/ADR-RES
[7] = tested on: NCI-H522
[8] = tested on: NCI-H226
[9] = tested on: K562
[10] = tested on: MCF7
[11] = tested on: MOLT-4
[12] = tested on: NCI-H460
[13] = tested on: SK-MEL-28
[14] = tested on: SNB-19
[15] = tested on: OVCAR-5
[16] = tested on: HCT-116
[17] = tested on: SK-MEL-5
[18] = tested on: T47D
[19] = tested on: CCRF-CEM
[20] = tested on: MDA-MB-231
[21] = tested on: Malme-3M
[22] = tested on: 786-0
[23] = tested on: RXF 393
[24] = tested on: COLO 205
[25] = tested on: CAKI-1
[26] = tested on: A549
[27] = tested on: SW-620
[28] = tested on: SF-268
[29] = tested on: HOP-62
[30] = tested on: U-251
[31] = tested on: SF-539
[32] = tested on: SR
[33] = tested on: SNB-75
[34] = tested on: OVCAR-8
[35] = tested on: UO-31
[36] = tested on: HCC 2998
[37] = tested on: EKVX
[38] = tested on: LOX IMVI
[39] = tested on: KM12
[40] = tested on: SK-MEL-2
[41] = tested on: IGROV-1
[42] = tested on: HCT-15
[43] = tested on: BT-549
[44] = tested on: UACC-257
[45] = tested on: RPMI-8226
[46] = tested on: OVCAR-4
[47] = tested on: M14
[48] = tested on: SF-295
[49] = tested on: MDA-MB-435
[50] = tested on: OVCAR-3
[51] = tested on: TK-10
[52] = tested on: NCI-H23
[53] = tested on: SN12C
[54] = tested on: MDA-N
[55] = tested on: HL-60
[56] = tested on: UACC-62
[57] = tested on: DU-145
[58] = tested on: HT-29

Measured: GI50

CCCCC(=O)Nc1ccc2cc(C(=O)OC)c(ON3C(=O)c4ccccc4C3=O)nc2n1
inactive: [1] 27.4 µM | [2] 28.4 µM | [3] 26.4 µM | [4] 48.1 µM | [5] 28.1 µM | [6] 32.6 µM | [7] 23.3 µM | [8] 22.5 µM | [9] 33.2 µM | [10] 43.2 µM | [11] 28.9 µM | [12] 15.3 µM | [13] 23.2 µM | [14] 27.9 µM | [15] 23 µM | [16] 15.7 µM | [17] 63.8 µM | [18] 35.3 µM | [19] 71.3 µM | [20] 38.9 µM | [21] 17.9 µM | [22] 17 µM | [23] 20.5 µM | [24] 64.4 µM | [25] 22.2 µM | [26] 27.2 µM | [27] 46 µM | [28] 29.1 µM | [29] 18.6 µM | [30] 26.5 µM | [31] 18 µM | [32] 36.4 µM | [33] 28.6 µM | [34] 25 µM | [35] 18.2 µM | [36] 22.6 µM | [37] 33.1 µM | [38] 31 µM | [39] 30.3 µM | [40] 37.5 µM | [41] 16.3 µM | [43] 38.3 µM | [44] 23.5 µM | [45] 89.9 µM | [46] 28.1 µM | [47] 17.9 µM | [48] 33.8 µM | [49] 37.6 µM | [50] 37.1 µM | [51] 14.6 µM | [52] 44.1 µM | [53] 28.9 µM | [54] 22.3 µM
40.6 µM: [42]

COC(=O)C1=C(OC(=O)/C(=C/c2ccc(Cl)cc2)c2ccc(Cl)cc2)C(C(=O)OC)[C@]2(O)[C@@H](C(=O)OC)[C@H]1C[C@@H](c1ccccc1)[C@@H]2C(=O)OC (some centres not stated)
inactive: [55] > 100 µM | [2] 62.5 µM | [4] 64 µM | [5] > 100 µM | [6] > 100 µM | [7] 3.85 µM | [8] > 100 µM | [9] 91.6 µM | [11] 2.22 µM | [12] > 100 µM | [13] > 100 µM | [14] 59 µM | [15] > 100 µM | [16] > 100 µM | [56] > 100 µM | [17] > 100 µM | [18] > 100 µM | [20] 50.6 µM | [57] > 100 µM | [23] > 100 µM | [24] > 100 µM | [25] > 100 µM | [26] 52.8 µM | [27] > 100 µM | [28] > 100 µM | [29] 32.7 µM | [30] 26.5 µM | [31] > 100 µM | [33] > 100 µM | [34] > 100 µM | [37] 70.5 µM | [38] > 100 µM | [39] > 100 µM | [40] > 100 µM | [41] 38.8 µM | [43] 90.4 µM | [44] > 100 µM | [46] > 100 µM | [47] 30.1 µM | [48] 29.6 µM | [49] > 100 µM | [50] 27 µM | [51] > 100 µM | [58] > 100 µM | [52] > 100 µM | [53] > 100 µM | [54] > 100 µM
> 100 µM: [42]
